Publication PMC8950706, “Influence of Substitutions in the Binding Motif of Proline-Rich Antimicrobial Peptide ARV-1502 on 70S Ribosome Binding and Antimicrobial Activity” (International Journal of Molecular Sciences, 2022)
Values after ≈ are worked out from the molar mass of the structure shown. Marks after values point to notes of the source that are not given here. Square brackets hold non-standard residues; d marks the D form. Ends that are not written are not given here. Peptide text beside a SMILES is read from it. Ac6c = NC1(C(=O)O)CCCCC1

Tests used:
E. coli 70S ribosome [1] = experiment: Competitive FP binding screening assay with Cf-ARV-1502 (relative FP); parameters: species or system E. coli BW25113; details: for Inhibition of Cf-ARV-1502 binding to the 70S ribosome (in words): Figure 3: peptide concentration 1.2 µmol/L; for Ribosome Binding (%): competitive ribosome binding against Cf-ARV-1502 (relative FP; values match 1.2 µmol/L peptide), low value = strong competition
Protocol: E. coli 70S ribosomes were prepared using a previously described protocol that was slightly modified. Briefly, E. coli BW25113 was cultivated in Luria-Bertani (LB) medium and cells were harvested after reaching an optical density of ~4 at 600 nm by centrifugation (5000× g, 15 min, 4 °C, Rotor JLA 8.100, Avanti J-20 XP, Beckmann Coulter, Krefeld, Germany). The cell pellets were frozen and stored at −80 °C. Cells were resuspended in ribosome buffer (2 mL/g cells; 20 mmol/L HEPES-KOH, 6 mmol/L MgCl2, 30 mmol/L NH4Cl, 4 mmol/L 2-mercaptoethanol, pH 7.6). Lysozyme (0.25 g/L cell suspension) was added, and the mixture was incubated on ice for 30 min. Cells were disrupted using the bead mill homogenizer FastPrep-24™ 5G (40 s, 4 m/s, 6 cycles, MP Biomedicals Germany GmbH, Eschwege, Germany) and zirconia/silica beads (0.1 mm diameter). The lysate was centrifuged (1500× g, 5 min, 4 °C, Rotor S4180, Allegra 21R, Beckmann Coulter) and the supernatant was incubated with DNase (5 U/mL) on ice for 60 min. The cell debris was removed by two centrifugation steps (16,000× g, 30 min, 4 °C followed by 32,000× g, 60 min, 4 °C, Rotor JA 30.50 Ti, Avanti J-30I, Beckmann Coulter). The ribosome was pelleted by ultracentrifugation (165,000× g, 17 h, 4 °C, Rotor 70 Ti, Optima LE-80K, Beckmann Coulter), resuspended in ribosome buffer (0.1 mL/g pellet), and stored at −80 °C. The ribosome concentration was determined by recording the absorbance of RNA at 260 nm (NanoPhotometer NP80, Implen GmbH, München, Germany) assuming that 1 AU corresponds to a ribosome concentration of 28 nmol/L. The molecular weight of the E. coli 70S ribosome was assumed to be 2.3 MDa.
E. coli 70S ribosomes and Cf-ARV-1502 were incubated with four different concentrations of unlabeled peptides chosen based on the IC50 curves of reference peptide ARV-1502. Each peptide was diluted in ribosome buffer to obtain a concentration of 4.8 µmol/L and transferred to a 384-well-plate. Peptides were then twofold serially diluted in four steps from 4.8 to 0.6 µmol/L (20 µL). The ribosome extract was diluted in ribosome buffer to reach a concentration of 2 µmol/L and 10 µL were added to each well to obtain a final ribosome concentration of 0.5 µmol/L. Plates were centrifuged (2 min, 500× g, Rotor S2096, Allegra^TM 21R, Beckmann Coulter) and incubated at 28 °C for 90 min. Cf-labeled ARV-1502 was added (10 µL; final concentration of 20 nmol/L) and the plates were again centrifuged and incubated (28 °C, 90 min). After incubation, fluorescence polarization was recorded on a […]^TM microplate reader (λex = 485 nm, λem = 535 nm).
On each plate 12 minimum (30 µL ribosome buffer and 10 µL Cf-ARV-1502) and 12 maximum (20 µL ribosome buffer, 10 µL ribosome solution and 10 µL Cf-ARV-1502) control samples were added. Fluorescence polarization of screening samples was normalized to the fluorescence polarization of these control samples. All screening samples were measured in triplicates and the whole experiment was repeated once on another day.

E. coli BW25113 = experiment: MIC, liquid broth micro dilution, wild type; format: cell-based, Escherichia coli; details: for Minimal Inhibitory Concentration, 25% MHB2, wt / Minimal Inhibitory Concentration, 33% TSB, wt: BW25113, 20 h
Protocol: (§1) MIC values were determined using a liquid broth micro dilution assay in sterile 96-well plates (polystyrene F-bottom, Greiner Bio-One GmbH) and a total volume of 100 μL per well. Aqueous peptide solutions (10 g/L) were serially twofold diluted in 25% Mueller-Hinton broth 2 (25% MBH2) or 33% tryptic soy broth (33% TSB) starting at a peptide concentration of 128 mg/L (50 μL/well). Overnight cultures of bacteria grown in 25% MHB2 (or 33% TSB) were diluted 30-fold in 25% MHB2 (or 33% TSB). After an incubation period of 4 h (37 °C, 200 rpm), cells were diluted to 1.5 × 10^7 cfu/mL, based on a McFarland test, and 50 μL were added to each well (final concentration of 7.5 × 10^6 […]). The plates were incubated (37 °C, 20 h) and the optical density was recorded at 595 nm using a microplate reader ([…]^TM, Beckmann Coulter). The MIC was defined as the lowest peptide concentration preventing visible bacterial growth.

E. coli 70S ribosome [2] = experiment: Cell-free GFP expression assay (in vitro translation); format: biochemical; details: for In Vitro Translation (%): GFP expression remaining relative to control, concentration not given (higher concentration 50 µmol/L); for Reduction of GFP expression, 50 µmol/L peptide: cell-free expression, peptide-to-ribosome ratio of 25, GFP fluorescence, 37 °C
Excerpt: Possible effects of ARV-1502 and its substituted analogs on the in vitro translation of the green fluorescent protein (GFP) were probed using the NEB PureExpress Delta RF123 Kit (New England Biolabs, Ipswich, MA, USA). The sfGFP DNA template was amplified from pY71sfGFP plasmid by PCR introducing an UAA stop codon. Release factor 1 (RF1) was 50fold diluted in Pure System Buffer (PSB) containing magnesium acetate (1 mol/L), monopotassium phosphate (0.5 mol/L, pH 7.3), potassium glutamate (1 mol/L), NH4Cl (1 mol/L), calcium chloride (0.5 mol/L), spermidine (1 mol/L), putrescine (0.1 mol/L), and DTT (0.1 mol/L). Each reaction used 35 ng of sfGFP template. Peptides were added at a final concentration of 5 µmol/L and 50 µmol/L. The reaction was started by adding Kit solutions A (2 µL) and B (1.5 µL), diluted RF1 (0.5 µL), sfGFP template (0.25 µL or water as negative control), PSB (0.25 µL), and peptide (0.5 µL or water), mixed, transferred into a black 384-well plate (flat bottom, Greiner Bio-One GmbH), and incubated (37 °C, 2 h). The fluorescence was recorded every 10 min (λexc = 485 nm, λem = 535 nm) in a microplate reader (Gemini EM, Molecular Devices LLC, San Jose, CA, USA).

[3] = test system: E. coli BW25113 ∆sbmA ∆mdtM; format: cell-based, Escherichia coli; details: ∆sbmA ∆mdtM compared with ∆sbmA
Protocol: as §1

Compound	Inhibition of Cf-ARV-1502 binding to the 70S ribosome (in words) (E. coli 70S ribosome [1])	MIC / activity against E. coli (E. coli BW25113; medium not given)	In Vitro Translation (%) (E. coli 70S ribosome [2])	Ribosome Binding (%) (E. coli 70S ribosome [1])	MIC (µg/mL), Table 3 (E. coli BW25113; BW25113, 4 h) [µg/mL]	Minimal Inhibitory Concentration, 25% MHB2, wt (E. coli BW25113) [µg/mL]	Minimal Inhibitory Concentration, 33% TSB, wt (E. coli BW25113)	Reduction of GFP expression, 50 µmol/L peptide (E. coli 70S ribosome [2])	Effect of the additional mdtM knockout on antibacterial activity [3]	MIC / activity against E. coli (E. coli BW25113; BW25113, 4 h) [µg/mL]
6: Chex-RPDDPRPYLPRPRPPRPVR-NH2 ([Ac6c]RPDDPRPYLPRPRPPRPVR-NH2; N-terminus assumed; SMILES CC(C)C[C@H](NC(=O)[C@H](Cc1ccc(O)cc1)NC(=O)[C@@H]1CCCN1C(=O)[C@H](CCCNC(=N)N)NC(=O)[C@@H]1CCCN1C(=O)[C@H](CC(=O)O)NC(=O)[C@H](CC(=O)O)NC(=O)[C@@H]1CCCN1C(=O)[C@H](CCCNC(=N)N)NC(=O)C1(N)CCCCC1)C(=O)N1CCC[C@H]1C(=O)N[C@@H](CCCNC(=N)N)C(=O)N1CCC[C@H]1C(=O)N[C@@H](CCCNC(=N)N)C(=O)N1CCC[C@H]1C(=O)N1CCC[C@H]1C(=O)N[C@@H](CCCNC(=N)N)C(=O)N1CCC[C@H]1C(=O)N[C@H](C(=O)N[C@@H](CCCNC(=N)N)C(N)=O)C(C)C) [Peptide 6]	inhibited Cf-ARV-1502	low activity against E. coli	–	–	–	–	–	–	–	–
CC(C)C[C@H](NC(=O)[C@H](Cc1ccc(O)cc1)NC(=O)[C@@H]1CCCN1C(=O)[C@H](CCCNC(=N)N)NC(=O)[C@@H]1CCCN1C(=O)[C@H](Cc1ccccc1)NC(=O)[C@H](Cc1ccccc1)NC(=O)[C@@H]1CCCN1C(=O)[C@H](CCCNC(=N)N)NC(=O)C1(N)CCCCC1)C(=O)N[C@@H](CCCCN)C(=O)N[C@@H](CCCNC(=N)N)C(=O)N1CCC[C@H]1C(=O)N[C@@H](CCCNC(=N)N)C(=O)N1CCC[C@H]1C(=O)N1CCC[C@H]1C(=O)N[C@@H](CCCNC(=N)N)C(=O)N1CCC[C@H]1C(=O)N[C@H](C(=O)N[C@@H](CCCNC(=N)N)C(N)=O)C(C)C [Peptide 98] (H-[Ac6c]RPFFPRPYLKRPRPPRPVR-NH2; N-terminus and C-terminus assumed)	poor competitor of Cf-ARV-1502	–	56.2 ± 2.1	98.3 ± 1.5	8 to 16	8 to 16	32 µg/mL	–	–	–
CC(C)[C@H](NC(=O)[C@@H]1CCCN1C(=O)[C@H](CCCNC(=N)N)NC(=O)[C@@H]1CCCN1C(=O)[C@@H]1CCCN1C(=O)[C@H](CCCNC(=N)N)NC(=O)[C@@H]1CCCN1C(=O)[C@H](CCCNC(=N)N)NC(=O)[C@@H]1CCCN1C(=O)[C@H](Cc1ccccc1)NC(=O)[C@H](Cc1ccc(O)cc1)NC(=O)[C@@H]1CCCN1C(=O)[C@H](CCCNC(=N)N)NC(=O)[C@@H]1CCCN1C(=O)[C@H](Cc1ccccc1)NC(=O)[C@H](Cc1ccccc1)NC(=O)[C@@H]1CCCN1C(=O)[C@H](CCCNC(=N)N)NC(=O)C1(N)CCCCC1)C(=O)N[C@@H](CCCNC(=N)N)C(N)=O [Peptide 96] (H-[Ac6c]RPFFPRPYFPRPRPPRPVR-NH2; N-terminus and C-terminus assumed)	–	–	77.2 ± 1.9	62.9 ± 4.8	16 (≈ 6.25 µM)	16	32 * µg/mL	~ 25%	no effect	–
CC(C)[C@H](NC(=O)[C@@H]1CCCN1C(=O)[C@H](CCCNC(=N)N)NC(=O)[C@@H]1CCCN1C(=O)[C@@H]1CCCN1C(=O)[C@H](CCCNC(=N)N)NC(=O)[C@@H]1CCCN1C(=O)[C@H](CCCNC(=N)N)NC(=O)[C@@H]1CCCN1C(=O)[C@H](CCCCN)NC(=O)[C@H](Cc1ccc(O)cc1)NC(=O)[C@@H]1CCCN1C(=O)[C@H](CCCNC(=N)N)NC(=O)[C@@H]1CCCN1C(=O)[C@H](CCCCN)NC(=O)[C@H](CCCCN)NC(=O)[C@@H]1CCCN1C(=O)[C@H](CCCNC(=N)N)NC(=O)C1(N)CCCCC1)C(=O)N[C@@H](CCCNC(=N)N)C(N)=O [Peptide 37] (H-[Ac6c]RPKKPRPYKPRPRPPRPVR-NH2; N-terminus and C-terminus assumed)	–	–	63.4 ± 13.3	56.7 ± 2.6	16 (≈ 6.39 µM)	16	64 µg/mL	~ 40%	–	–
CC(C)[C@H](NC(=O)[C@@H]1CCCN1C(=O)[C@H](CCCNC(=N)N)NC(=O)[C@@H]1CCCN1C(=O)[C@@H]1CCCN1C(=O)[C@H](CCCNC(=N)N)NC(=O)[C@@H]1CCCN1C(=O)[C@H](CCCNC(=N)N)NC(=O)[C@@H]1CCCN1C(=O)[C@H](CCCCN)NC(=O)[C@H](CO)NC(=O)[C@@H]1CCCN1C(=O)[C@H](CCCNC(=N)N)NC(=O)[C@@H]1CCCN1C(=O)[C@H](CCCCN)NC(=O)[C@H](CC(=O)O)NC(=O)[C@@H]1CCCN1C(=O)[C@H](CCCNC(=N)N)NC(=O)C1(N)CCCCC1)C(=O)N[C@@H](CCCNC(=N)N)C(N)=O [Peptide 125] (H-[Ac6c]RPDKPRPSKPRPRPPRPVR-NH2; N-terminus and C-terminus assumed)	–	–	104.3 ± 9.3	86.3 ± 2.5	128 (≈ 53 µM)	128	–	slightly improved GFP translation	–	–
CC(C)C[C@H](NC(=O)[C@H](Cc1ccc(O)cc1)NC(=O)[C@@H]1CCCN1C(=O)[C@H](CCCNC(=N)N)NC(=O)[C@@H]1CCCN1C(=O)[C@H](CCCCN)NC(=O)[C@H](CCCCN)NC(=O)[C@@H]1CCCN1C(=O)[C@H](CCCNC(=N)N)NC(=O)C1(N)CCCCC1)C(=O)N1CCC[C@H]1C(=O)N[C@@H](Cc1ccccc1)C(=O)N1CCC[C@H]1C(=O)N[C@@H](CCCNC(=N)N)C(=O)N1CCC[C@H]1C(=O)N1CCC[C@H]1C(=O)N[C@@H](CCCNC(=N)N)C(=O)N1CCC[C@H]1C(=O)N[C@H](C(=O)N[C@@H](CCCNC(=N)N)C(N)=O)C(C)C [Peptide 46] (H-[Ac6c]RPKKPRPYLPFPRPPRPVR-NH2; N-terminus and C-terminus assumed)	–	–	96.6 ± 3.1	87.1 ± 3.4	–	16	64 * µg/mL	did not inhibit GFP expression	–	16 (≈ 6.45 µM)
